# Measurements: PMC5218480 (PLoS ONE, 2017)
# Tested on: MV-4-11 cells
# Test: Gene expression microarray analysis (Affymetrix PrimeView) and GSEA
# Type: cell-based, human
# Design: RFU PODN (11730768_x_at) / Fold change /veh PODN (11730768_x_at) / RFU LINC00158 (11744669_a_at) / Fold change /veh LINC00158 (11744669_a_at) / RFU DUSP10 (11751237_a_at) / Fold change /veh DUSP10 (11751237_a_at) / RFU ID3 (11757404_x_at) / Fold change /veh ID3 (11757404_x_at) / RFU PLEKHG5 (11737974_s_at) / Fold change /veh PLEKHG5 (11737974_s_at) / RFU LRRC4B (11730491_at) / Fold change /veh LRRC4B (11730491_at) / RFU GIMAP4 (11747438_a_at) / Fold change /veh GIMAP4 (11747438_a_at) / RFU KRT8 (11758183_x_at) / Fold change /veh KRT8 (11758183_x_at) / RFU CNN1 (11734310_a_at) / Fold change /veh CNN1 (11734310_a_at) / RFU VPS37D (11726825_at) / Fold change /veh VPS37D (11726825_at) / RFU C10orf10 (11716522_x_at) / Fold change /veh C10orf10 (11716522_x_at) / RFU KIR2DL2 /// KIR2DL4 /// KIR2DL5A /// KIR2DL5B /// KIR2DS1 /// KIR2DS2 /// KIR2DS3 /// KIR2DS4 /// KIR3DL3 /// KIR3DL3 /// KIR3DS1 (11738374_at) / Fold change /veh KIR2DL2 /// KIR2DL4 /// KIR2DL5A /// KIR2DL5B /// KIR2DS1 /// KIR2DS2 /// KIR2DS3 /// KIR2DS4 /// KIR3DL3 /// KIR3DL3 /// KIR3DS1 (11738374_at) / RFU C1QL1 (11718748_at) / Fold change /veh C1QL1 (11718748_at) / RFU TMPRSS4 (11747572_a_at) / Fold change /veh TMPRSS4 (11747572_a_at) / RFU HAMP (11756126_x_at) / Fold change /veh HAMP (11756126_x_at) / RFU RNFT2 (11725882_a_at) / Fold change /veh RNFT2 (11725882_a_at) / RFU NR4A2 (11747474_a_at) / Fold change /veh NR4A2 (11747474_a_at) / RFU ABCC12 (11746883_a_at) / Fold change /veh ABCC12 (11746883_a_at) / RFU TMEM136 (11760407_x_at) / Fold change /veh TMEM136 (11760407_x_at) / RFU CLDN22 /// WWC2 (11732394_at) / Fold change /veh CLDN22 /// WWC2 (11732394_at) / RFU HLA-DPB1 (11760878_x_at) / Fold change /veh HLA-DPB1 (11760878_x_at) / RFU SPINT1 (11716480_a_at) / Fold change /veh SPINT1 (11716480_a_at) / RFU GAP43 (11754022_s_at) / Fold change /veh GAP43 (11754022_s_at) / RFU A4GNT (11735810_at) / Fold change /veh A4GNT (11735810_at) / RFU PRB3 (11715151_x_at) / Fold change /veh PRB3 (11715151_x_at) / RFU TUBB4B (11761932_at) / Fold change /veh TUBB4B (11761932_at) / RFU CAPN14 (11732068_a_at) / Fold change /veh CAPN14 (11732068_a_at) / RFU TMCC2 (11721928_a_at) / Fold change /veh TMCC2 (11721928_a_at) / RFU IRGQ (11745062_a_at) / Fold change /veh IRGQ (11745062_a_at) / RFU FAM174B (11720279_a_at) / Fold change /veh FAM174B (11720279_a_at) / RFU TMPRSS4 (11748680_a_at) / Fold change /veh TMPRSS4 (11748680_a_at) / RFU FAM212B (11763350_a_at) / Fold change /veh FAM212B (11763350_a_at) / RFU PLEKHG5 (11743358_a_at) / Fold change /veh PLEKHG5 (11743358_a_at) / RFU ZSCAN30 (11745921_a_at) / Fold change /veh ZSCAN30 (11745921_a_at) / RFU CMKLR1 (11741424_a_at) / Fold change /veh CMKLR1 (11741424_a_at) / RFU LOC101060620 /// MAPK8IP1 (11723275_at) / Fold change /veh LOC101060620 /// MAPK8IP1 (11723275_at) / RFU SPTSSB (11747773_x_at) / Fold change /veh SPTSSB (11747773_x_at) / RFU PRSS12 (11739890_at) / Fold change /veh PRSS12 (11739890_at) / RFU BIN1 (11741810_x_at) / Fold change /veh BIN1 (11741810_x_at) / RFU WNT11 (11732464_a_at) / Fold change /veh WNT11 (11732464_a_at) / RFU C10orf10 (11716521_a_at) / Fold change /veh C10orf10 (11716521_a_at) / RFU C5orf56 (11738089_at) / Fold change /veh C5orf56 (11738089_at) / RFU CYB561 (11721691_x_at) / Fold change /veh CYB561 (11721691_x_at) / RFU ANKRD19P (11752326_a_at) / Fold change /veh ANKRD19P (11752326_a_at) / RFU OR2T12 /// OR2T33 /// OR2T8 (11738714_s_at) / Fold change /veh OR2T12 /// OR2T33 /// OR2T8 (11738714_s_at) / RFU VCAN (11748164_a_at) / Fold change /veh VCAN (11748164_a_at) / RFU JSRP1 (11732532_at) / Fold change /veh JSRP1 (11732532_at) / RFU KRTAP10-11 (11738290_x_at) / Fold change /veh KRTAP10-11 (11738290_x_at) / RFU MYO3A (11730013_a_at) / Fold change /veh MYO3A (11730013_a_at) / RFU EBF3 (11725865_a_at) / Fold change /veh EBF3 (11725865_a_at) / RFU CAMK2N1 (11719241_x_at) / Fold change /veh CAMK2N1 (11719241_x_at) / RFU C5orf56 (11738088_a_at) / Fold change /veh C5orf56 (11738088_a_at) / RFU OLFML3 (11715873_a_at) / Fold change /veh OLFML3 (11715873_a_at) / RFU LOC100653217 /// NTM (11731650_a_at) / Fold change /veh LOC100653217 /// NTM (11731650_a_at) / RFU MAPK11 (11762145_a_at) / Fold change /veh MAPK11 (11762145_a_at) / RFU FIZ1 (11724087_x_at) / Fold change /veh FIZ1 (11724087_x_at) / RFU OASL (11726364_x_at) / Fold change /veh OASL (11726364_x_at) / RFU SOX15 (11748057_x_at) / Fold change /veh SOX15 (11748057_x_at) / RFU CD79A (11719716_a_at) / Fold change /veh CD79A (11719716_a_at) / RFU HIST1H1D (11736915_at) / Fold change /veh HIST1H1D (11736915_at) / RFU CASKIN2 (11723855_a_at) / Fold change /veh CASKIN2 (11723855_a_at) / RFU LOC730098 (11760151_x_at) / Fold change /veh LOC730098 (11760151_x_at) / RFU OR4N2 (11742367_at) / Fold change /veh OR4N2 (11742367_at) / RFU PRRT2 (11749266_a_at) / Fold change /veh PRRT2 (11749266_a_at) / RFU SNX32 (11753110_a_at) / Fold change /veh SNX32 (11753110_a_at) / RFU CDHR5 (11726645_a_at) / Fold change /veh CDHR5 (11726645_a_at) / RFU RCAN1 (11760418_a_at) / Fold change /veh RCAN1 (11760418_a_at) / RFU FAM167A (11723789_a_at) / Fold change /veh FAM167A (11723789_a_at) / RFU FAM26E (11764081_at) / Fold change /veh FAM26E (11764081_at) / RFU ISYNA1 (11749810_s_at) / Fold change /veh ISYNA1 (11749810_s_at) / RFU ACY1 (11761880_at) / Fold change /veh ACY1 (11761880_at) / RFU 11764098_at / Fold change /veh 11764098_at / RFU SAMD14 (11745864_x_at) / Fold change /veh SAMD14 (11745864_x_at) / RFU NPB (11741838_a_at) / Fold change /veh NPB (11741838_a_at) / RFU TMPRSS6 (11731388_a_at) / Fold change /veh TMPRSS6 (11731388_a_at) / RFU KRTAP10-2 (11738614_at) / Fold change /veh KRTAP10-2 (11738614_at) / RFU ARHGAP8 /// PRR5-ARHGAP8 (11727945_x_at) / Fold change /veh ARHGAP8 /// PRR5-ARHGAP8 (11727945_x_at) / RFU KRTAP5-7 /// NADSYN1 (11734609_at) / Fold change /veh KRTAP5-7 /// NADSYN1 (11734609_at) / RFU RASL12 (11751679_a_at) / Fold change /veh RASL12 (11751679_a_at) / RFU CDKN2B (11736163_a_at) / Fold change /veh CDKN2B (11736163_a_at) / RFU PRF1 (11729649_at) / Fold change /veh PRF1 (11729649_at) / RFU, ZNF638 /// ZNF638-IT1 / Fold change vs veh, ZNF638 /// ZNF638-IT1 / RFU, PANK3 / Fold change vs veh, PANK3 / RFU, SH3YL1 / Fold change vs veh, SH3YL1 / RFU, ZEB2 / Fold change vs veh, ZEB2 / RFU, NRIP1 / Fold change vs veh, NRIP1 / RFU, PTTG1IP / Fold change vs veh, PTTG1IP / RFU, CAPN2 / Fold change vs veh, CAPN2 / RFU, MED14 / Fold change vs veh, MED14 / RFU, SNORA58 / Fold change vs veh, SNORA58 / RFU, C1orf63 / Fold change vs veh, C1orf63 / RFU, LRRFIP1 / Fold change vs veh, LRRFIP1 / RFU, NDUFAF7 / Fold change vs veh, NDUFAF7 / RFU, SLC12A2 / Fold change vs veh, SLC12A2 / RFU, IBTK / Fold change vs veh, IBTK / RFU, ESF1 / Fold change vs veh, ESF1 / Fold change vs veh, TMEM50B / RFU, TAOK1 / Fold change vs veh, TAOK1 / RFU, ACBD3 / Fold change vs veh, ACBD3 / RFU, TMA16 / Fold change vs veh, TMA16 / RFU, RWDD3 / Fold change vs veh, RWDD3 / RFU, BCAT1 / Fold change vs veh, BCAT1 / RFU, EDEM3 / Fold change vs veh, EDEM3 / RFU, TMEM33 / Fold change vs veh, TMEM33 / RFU, WDR75 / Fold change vs veh, WDR75 / RFU, AHCTF1 / Fold change vs veh, AHCTF1 / RFU, TFRC / Fold change vs veh, TFRC / RFU, ZDHHC17 / Fold change vs veh, ZDHHC17 / RFU, NOM1 / Fold change vs veh, NOM1 / RFU, ARL8B / Fold change vs veh, ARL8B / RFU, ZBTB11 / Fold change vs veh, ZBTB11 / RFU, TAMM41 / Fold change vs veh, TAMM41 / RFU, KIAA1704 /// LOC100996395 / Fold change vs veh, KIAA1704 /// LOC100996395 / RFU, ING1 / Fold change vs veh, ING1 / RFU, TRMT61B / Fold change vs veh, TRMT61B / RFU, FUBP3 / Fold change vs veh, FUBP3 / RFU, TP53 / Fold change vs veh, TP53 / RFU, TNKS2 / Fold change vs veh, TNKS2 / RFU, ZFP14 / Fold change vs veh, ZFP14 / RFU, ACTR2 / Fold change vs veh, ACTR2 / RFU, PPP3R1 / Fold change vs veh, PPP3R1 / RFU, PIK3R1 / Fold change vs veh, PIK3R1 / RFU, HNRNPA1 / Fold change vs veh, HNRNPA1 / RFU, RNF170 / Fold change vs veh, RNF170 / RFU, ZNF28 / Fold change vs veh, ZNF28 / RFU, RNGTT / Fold change vs veh, RNGTT / RFU, OGT / Fold change vs veh, OGT / RFU, BRD1 / Fold change vs veh, BRD1 / RFU, MARS / Fold change vs veh, MARS / RFU, ZNF655 / Fold change vs veh, ZNF655 / RFU, FAHD1 / Fold change vs veh, FAHD1 / RFU, BDP1 / Fold change vs veh, BDP1 / RFU, LRRCC1 / Fold change vs veh, LRRCC1 / RFU, ARID1A / Fold change vs veh, ARID1A / RFU, ZNF146 / Fold change vs veh, ZNF146 / RFU, ZNF330 / Fold change vs veh, ZNF330 / RFU, GPN3 / Fold change vs veh, GPN3 / RFU, C9orf123 / Fold change vs veh, C9orf123 / RFU, N4BP2L2 / Fold change vs veh, N4BP2L2 / RFU, ARFIP1 / Fold change vs veh, ARFIP1 / RFU, FAM179B / Fold change vs veh, FAM179B / RFU, BCL10 / Fold change vs veh, BCL10 / RFU, UHRF1BP1L / Fold change vs veh, UHRF1BP1L / RFU, BET1 / Fold change vs veh, BET1 / RFU, CNOT2 / Fold change vs veh, CNOT2 / RFU, ZNF268 / Fold change vs veh, ZNF268 / Fold change vs veh, ZNF507 / RFU, DGCR2 / Fold change vs veh, DGCR2 / RFU, WDSUB1 / Fold change vs veh, WDSUB1 / Fold change vs veh, HSP90B1 /// MIR3652 / RFU, ADSS / Fold change vs veh, ADSS / RFU, GK / Fold change vs veh, GK / RFU, ZNF148 / Fold change vs veh, ZNF148 / RFU, TAF9 / Fold change vs veh, TAF9 / RFU, SLC1A5 / Fold change vs veh, SLC1A5 / RFU, SLMO2 / Fold change vs veh, SLMO2 / RFU, ABCC4 / Fold change vs veh, ABCC4 / RFU, LOC101060439 /// RAP1B / Fold change vs veh, LOC101060439 /// RAP1B / RFU, RFX7 / Fold change vs veh, RFX7 / RFU, GTPBP10 / Fold change vs veh, GTPBP10 / RFU, CNEP1R1 / Fold change vs veh, CNEP1R1 / RFU, BIVM-ERCC5 /// ERCC5 / Fold change vs veh, BIVM-ERCC5 /// ERCC5 / RFU, ILF3 / Fold change vs veh, ILF3 / RFU 11762660_at / Fold change /veh 11762660_at / RFU VCAN (11757783_s_at) / Fold change /veh VCAN (11757783_s_at) / RFU DDX43 (11728927_at) / Fold change /veh DDX43 (11728927_at) / RFU KRT8 (11758188_x_at) / Fold change /veh KRT8 (11758188_x_at) / RFU NKD1 (11759106_at) / Fold change /veh NKD1 (11759106_at) / RFU SRD5A1 (11742802_a_at) / Fold change /veh SRD5A1 (11742802_a_at) / RFU TPSAB1 /// TPSB2 (11721975_s_at) / Fold change /veh TPSAB1 /// TPSB2 (11721975_s_at) / RFU GSTM3 (11746129_a_at) / Fold change /veh GSTM3 (11746129_a_at) / RFU IL23R (11737362_x_at) / Fold change /veh IL23R (11737362_x_at) / RFU TMEM51 (11727254_a_at) / Fold change /veh TMEM51 (11727254_a_at) / RFU PIWIL2 (11732686_x_at) / Fold change /veh PIWIL2 (11732686_x_at) / RFU ORM1 (11744905_x_at) / Fold change /veh ORM1 (11744905_x_at) / RFU CCDC152 (11743942_at) / Fold change /veh CCDC152 (11743942_at) / RFU ECM1 (11717891_a_at) / Fold change /veh ECM1 (11717891_a_at) / RFU IL23R (11748794_a_at) / Fold change /veh IL23R (11748794_a_at) / RFU TNFAIP8L3 (11732012_x_at) / Fold change /veh TNFAIP8L3 (11732012_x_at) / RFU MBOAT4 (11741988_at) / Fold change /veh MBOAT4 (11741988_at) / RFU 11764193_at / Fold change /veh 11764193_at / RFU TMEM53 (11763286_at) / Fold change /veh TMEM53 (11763286_at) / RFU MAGEB2 (11727129_at) / Fold change /veh MAGEB2 (11727129_at) / RFU TMEM200A (11744735_a_at) / Fold change /veh TMEM200A (11744735_a_at) / RFU CCDC152 (11751479_a_at) / Fold change /veh CCDC152 (11751479_a_at) / RFU FAM211A (11726209_a_at) / Fold change /veh FAM211A (11726209_a_at) / RFU RGS16 (11746705_a_at) / Fold change /veh RGS16 (11746705_a_at) / RFU VCAN (11755009_s_at) / Fold change /veh VCAN (11755009_s_at) / RFU RHOB (11743442_s_at) / Fold change /veh RHOB (11743442_s_at) / RFU RGS16 (11720943_a_at) / Fold change /veh RGS16 (11720943_a_at) / RFU RGS16 (11720944_at) / Fold change /veh RGS16 (11720944_at) / RFU, VPS4B / Fold change vs veh, VPS4B / RFU, CREB1 / Fold change vs veh, CREB1 / RFU, DNAJC13 / Fold change vs veh, DNAJC13 / RFU, GNAQ / Fold change vs veh, GNAQ / RFU, CDK5R1 / Fold change vs veh, CDK5R1 / RFU, ZRANB3 / Fold change vs veh, ZRANB3 / RFU, CUL4A / Fold change vs veh, CUL4A / RFU, CCNY / Fold change vs veh, CCNY / RFU, UFL1 / Fold change vs veh, UFL1 / RFU, COG3 / Fold change vs veh, COG3 / RFU, DIAPH2 / Fold change vs veh, DIAPH2 / RFU, SKA2 / Fold change vs veh, SKA2 / RFU, AFF3 / Fold change vs veh, AFF3 / RFU, LMF1 / Fold change vs veh, LMF1 / RFU, IPO11 / Fold change vs veh, IPO11 / RFU, DFFB / Fold change vs veh, DFFB / RFU, FOXP1 / Fold change vs veh, FOXP1 / RFU, CARD8 / Fold change vs veh, CARD8 / RFU, STRN3 / Fold change vs veh, STRN3 / RFU, ADK / Fold change vs veh, ADK / RFU, RASSF2 / Fold change vs veh, RASSF2 / RFU, WIPF1 / Fold change vs veh, WIPF1 / RFU, LARP1B / Fold change vs veh, LARP1B / RFU, RASA1 / Fold change vs veh, RASA1 / RFU, RB1 / Fold change vs veh, RB1 / RFU, PPFIA1 / Fold change vs veh, PPFIA1 / RFU, MAT2A / Fold change vs veh, MAT2A / RFU, CCT5 / Fold change vs veh, CCT5 / RFU, WDR92 / Fold change vs veh, WDR92 / RFU, CUX1 / Fold change vs veh, CUX1 / RFU, TTC7A / Fold change vs veh, TTC7A / RFU, TMEM135 / Fold change vs veh, TMEM135 / RFU, DEPTOR / Fold change vs veh, DEPTOR / RFU, CPM / Fold change vs veh, CPM / RFU, DNAJB6 / Fold change vs veh, DNAJB6 / RFU, CACNA2D3 / Fold change vs veh, CACNA2D3 / RFU, DTX4 / Fold change vs veh, DTX4 / RFU, TFCP2 / Fold change vs veh, TFCP2 / RFU, GMCL1 /// GMCL1P1 / Fold change vs veh, GMCL1 /// GMCL1P1 / RFU, AEBP2 / Fold change vs veh, AEBP2 / RFU, SNHG1 /// SNORD22 /// SNORD25 /// SNORD26 /// SNORD27 /// SNORD28 /// SNORD29 /// SNORD31 / Fold change vs veh, SNHG1 /// SNORD22 /// SNORD25 /// SNORD26 /// SNORD27 /// SNORD28 /// SNORD29 /// SNORD31 / Fold change (Aza/veh), C12orf56 (ProbeSet 11735607_a_at) / Fold change (ACY-1035/veh), C12orf56 (ProbeSet 11735607_a_at) / Fold change (Aza/veh), FGFR1OP (ProbeSet 11751329_s_at) / Fold change (ACY-1035/veh), FGFR1OP (ProbeSet 11751329_s_at) / Fold change (Aza/veh), VPS36 (ProbeSet 11739960_a_at) / Fold change (ACY-1035/veh), VPS36 (ProbeSet 11739960_a_at) / RFU SYPL1 (11715823_x_at) / Fold change /veh SYPL1 (11715823_x_at) / RFU IGFBP7 (11715501_s_at) / Fold change /veh IGFBP7 (11715501_s_at) / RFU REEP3 (11722064_at) / Fold change /veh REEP3 (11722064_at) / RFU IGLL1 (11728026_x_at) / Fold change /veh IGLL1 (11728026_x_at): dose or concentration left out as unconfirmed
# Conditions: MV-4-11 cells, 48 hours
smiles,measurement,value
Nc1ncn([C@@H]2O[C@H](CO)[C@@H](O)[C@H]2O)c(=O)n1 [azacitidine],Fold change /veh TMPRSS4 (11747572_a_at),1.01
